Where two headings read alike, the source gives them in different places.
Tested on: hepsin mRNA in LNCaP cells
Conditions: DHT 10 nM, 24 or 72 hours, Northern blot, compared to GAPDH
Experimental: The prostate cancer cell lines, LNCaP, were obtained from ATCC. The LNCaP cells were treated with dihydrotestosterone (Sigma A 8380) in order to study the response of hepsin mRNA expression to androgens. The confluent cells were cultured in growth medium containing charcoal-stripped FBS for 24 hours. DHT was added to each flask at 10 nM. For control cells, ethanol was added as a vehicle control. The cells were incubated for 24 or 72 hours.
Total RNA was isolated from the cell lines using the RNeasy Maxi Kit (Qiagen), as described in section E above. The Northern gel and blot methods were performed as described in section A above.
The fold-increase of the amount of hepsin mRNA compared to GAPDH was performed according to section C above.

C[C@]12CCC(=O)C[C@@H]1CC[C@@H]1[C@@H]2CC[C@]2(C)[C@@H](O)CC[C@@H]12 [DHT, dihydrotestosterone]
hepsin mRNA transcript levels: increased
hepsin mRNA transcript levels (listed as dihydrotestosterone): Up-regulation

— US20040132156A1, “Modified hepsin molecules having a substitute activation sequence and uses thereof” (Schering Aktiengesellschaft, priority 2002, published 2004)
